Measurements reported in patent US20130197077A1, “Bicyclic Furanones with Low Toxicity for Microbial Control” (priority 2012, published 2013).

Columns and labels:
E. coli RP437 = test system: E. coli RP437
Excerpt: FIG. 10 is a graph comparing the cytotoxicity of the exemplary bicyclic brominated furanones according to the present invention verses an exemplary conventional brominated furanone relative to E. Coli RP437;

[1] = test system: SK-N-SH human neuroblastoma; test: Cytotoxicity to mammalian cells, survival (%) by OD450; assay type: cell-based; details: 100 μM; 0 h, 24 h and 48 h recovery after removal of drugs
Method: (§1) In this test, the mammalian cells used were 3T3 mouse fibroblasts and SK-N-SH human neuroblastomas, and 0 h, 24 h, and 48 h, refer to recovery time of cells after removal of drugs. At the beginning of the experiment, the survival of the cells is assumed to be 100 percent. The survival percentage is calculated using the following formula: […]
(§2) The sample OD was obtained from the wells containing cells and drugs, and the control OD was obtained from wells containing cells+1% DMSO.

3T3 mouse fibroblasts = test: as above; assay type: cell-based; details: 100 μM; 0 h, 24 h and 48 h recovery after removal of drugs
Method: as §1, §2

`CC1=C(Br)/C(=C/Br)OC1=O` [BF8] was tested, and the “toxicity to the growth of E. coli RP437” value (E. coli RP437) was “more toxic”, the “cytotoxicity to SK-N-SH human neuroblastomas” value [1] was “cytotoxic” and the “cytotoxicity to 3T3 mouse fibroblasts” value (3T3 mouse fibroblasts) was “cytotoxic”.
